# From ChEMBL document CHEMBL3862033 (J Med Chem, 2016)
# The source made the active and inactive calls. The calls are words filed in the database; no cut-off is given here.
# Target: 5-hydroxytryptamine receptor 6 (Homo sapiens) (UniProt P50406)
# Assay: Displacement of [3H]LSD from human 5-HT6 receptor expressed in HEK cell membranes at 10 uM incubated for 90 mins under dark condition by microbeta scintillation counting method relative to control
# Conditions: HEK293
# 5-hydroxytryptamine receptor 6 (Homo sapiens), sequence (P50406 whole entry): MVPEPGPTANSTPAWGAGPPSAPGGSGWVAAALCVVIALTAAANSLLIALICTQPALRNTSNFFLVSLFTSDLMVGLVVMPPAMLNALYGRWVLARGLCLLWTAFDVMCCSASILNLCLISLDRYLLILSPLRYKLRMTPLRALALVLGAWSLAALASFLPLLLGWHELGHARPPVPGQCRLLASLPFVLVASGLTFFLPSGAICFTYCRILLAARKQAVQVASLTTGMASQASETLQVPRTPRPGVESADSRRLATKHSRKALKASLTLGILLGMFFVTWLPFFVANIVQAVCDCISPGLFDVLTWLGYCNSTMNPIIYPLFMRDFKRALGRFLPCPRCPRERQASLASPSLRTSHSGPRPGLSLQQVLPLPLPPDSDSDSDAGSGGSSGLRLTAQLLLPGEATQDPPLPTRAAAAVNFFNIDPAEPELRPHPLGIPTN
row,Structure (SMILES),inhibition
1,CN(C)c1nc(Cl)nc2c1ncn2[C@H]1[C@H](O)[C@H](O)[C@]2(C(=O)O)C[C@H]12,< 50%

# Target: 5-hydroxytryptamine receptor 1D (Homo sapiens) (UniProt P28221)
# Assay: Displacement of [3H]5-CT from human 5-HT1D receptor expressed in HEK-T cell membranes at 10 uM incubated for 90 mins under dark condition by microbeta scintillation counting method relative to control
# Conditions: not given
# 5-hydroxytryptamine receptor 1D (Homo sapiens), sequence (P28221 whole entry): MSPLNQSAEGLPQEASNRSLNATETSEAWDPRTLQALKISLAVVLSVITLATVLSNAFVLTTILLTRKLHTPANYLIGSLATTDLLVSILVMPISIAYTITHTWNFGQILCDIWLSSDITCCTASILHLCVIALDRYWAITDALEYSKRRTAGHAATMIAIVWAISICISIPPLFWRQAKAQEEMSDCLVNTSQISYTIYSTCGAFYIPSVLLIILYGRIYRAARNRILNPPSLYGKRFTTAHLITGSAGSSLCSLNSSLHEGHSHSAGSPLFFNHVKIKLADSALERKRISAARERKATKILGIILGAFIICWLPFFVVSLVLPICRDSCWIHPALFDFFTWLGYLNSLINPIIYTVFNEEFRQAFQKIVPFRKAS
row,Structure (SMILES),inhibition
1,CN(C)c1nc(Cl)nc2c1ncn2[C@H]1[C@H](O)[C@H](O)[C@]2(C(=O)O)C[C@H]12,< 50%

# Target: T1, 5-hydroxytryptamine receptor 2B (Homo sapiens, UniProt P41595)
# Assay: not given
# Conditions: HEK293, at 10 µM
# T1 sequence (P41595 whole entry): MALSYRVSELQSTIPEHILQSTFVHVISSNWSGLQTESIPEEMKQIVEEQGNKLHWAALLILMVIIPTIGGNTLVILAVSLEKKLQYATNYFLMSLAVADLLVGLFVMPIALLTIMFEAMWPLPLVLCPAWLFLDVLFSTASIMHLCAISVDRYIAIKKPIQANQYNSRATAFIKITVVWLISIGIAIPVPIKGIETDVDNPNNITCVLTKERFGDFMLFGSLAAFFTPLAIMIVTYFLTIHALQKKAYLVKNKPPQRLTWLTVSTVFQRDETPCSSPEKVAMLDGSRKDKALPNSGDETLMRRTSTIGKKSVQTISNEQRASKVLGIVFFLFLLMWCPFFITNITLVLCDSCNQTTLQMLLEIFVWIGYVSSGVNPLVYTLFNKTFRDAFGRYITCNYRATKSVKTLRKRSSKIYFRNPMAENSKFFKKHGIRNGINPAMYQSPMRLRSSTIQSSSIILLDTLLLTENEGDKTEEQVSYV
row,Structure (SMILES),inhibition
1,CN(C)c1nc(Cl)nc2c1ncn2[C@H]1[C@H](O)[C@H](O)[C@]2(C(=O)O)C[C@H]12,> 50%

# Target: 5-hydroxytryptamine receptor 5A (Homo sapiens) (UniProt P47898)
# Assay: Displacement of [3H]LSD from human 5-HT5A receptor expressed in Flp-In-CHO cell membranes incubated for 90 mins under dark condition by microbeta scintillation counting method relative to control
# Design: concentration or dose not given beside the values
# Conditions: not given
# 5-hydroxytryptamine receptor 5A (Homo sapiens), sequence (P47898 whole entry): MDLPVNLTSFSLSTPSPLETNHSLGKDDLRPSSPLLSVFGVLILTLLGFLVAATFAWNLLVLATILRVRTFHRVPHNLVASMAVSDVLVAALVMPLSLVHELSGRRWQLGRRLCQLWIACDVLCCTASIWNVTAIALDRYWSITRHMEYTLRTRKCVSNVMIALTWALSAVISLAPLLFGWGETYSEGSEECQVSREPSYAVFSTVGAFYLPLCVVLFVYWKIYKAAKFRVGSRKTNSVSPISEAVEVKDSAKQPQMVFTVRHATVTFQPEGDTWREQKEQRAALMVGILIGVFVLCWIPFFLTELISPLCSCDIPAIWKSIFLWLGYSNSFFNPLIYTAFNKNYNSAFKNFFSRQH
row,Structure (SMILES),inhibition
1,CN(C)c1nc(Cl)nc2c1ncn2[C@H]1[C@H](O)[C@H](O)[C@]2(C(=O)O)C[C@H]12,Active

# Target: T1, 5-hydroxytryptamine receptor 2B
# Assay: biochemical
# Type: cell-based, HEK293
# Conditions: not given
row,Structure (SMILES),Ki
1,CN(C)c1nc(Cl)nc2c1ncn2[C@H]1[C@H](O)[C@H](O)[C@]2(C(=O)O)C[C@H]12,4.7 µM

# Target: T2, 5-hydroxytryptamine receptor 2A (Homo sapiens, UniProt P28223)
# Assay: Displacement of [3H]ketanserin from human 5-HT2A receptor expressed in HEK-T cell membranes at 10 uM incubated for 90 mins under dark condition by microbeta scintillation counting method relative to control
# Conditions: not given
# T2 sequence (P28223 whole entry): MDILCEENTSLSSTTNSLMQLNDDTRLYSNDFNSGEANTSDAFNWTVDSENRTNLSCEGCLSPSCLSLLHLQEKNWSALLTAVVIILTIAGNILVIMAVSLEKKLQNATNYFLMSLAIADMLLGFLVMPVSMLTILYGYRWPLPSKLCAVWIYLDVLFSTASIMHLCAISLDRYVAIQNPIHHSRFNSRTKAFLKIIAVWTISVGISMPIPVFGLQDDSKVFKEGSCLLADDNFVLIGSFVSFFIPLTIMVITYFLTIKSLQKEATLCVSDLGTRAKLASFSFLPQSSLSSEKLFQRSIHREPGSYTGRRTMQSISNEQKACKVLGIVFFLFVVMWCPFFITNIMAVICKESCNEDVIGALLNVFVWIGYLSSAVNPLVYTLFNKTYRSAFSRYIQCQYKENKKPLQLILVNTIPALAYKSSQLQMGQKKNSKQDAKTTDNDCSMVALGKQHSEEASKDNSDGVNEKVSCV
row,Structure (SMILES),inhibition
1,CN(C)c1nc(Cl)nc2c1ncn2[C@H]1[C@H](O)[C@H](O)[C@]2(C(=O)O)C[C@H]12,< 10%

# Target: T2, 5-hydroxytryptamine receptor 2A
# Assay: Displacement of [3H]ketanserin from human 5-HT2A receptor expressed in HEK-T cell membranes incubated for 90 mins under dark condition by microbeta scintillation counting method
# Conditions: not given
row,Structure (SMILES),Ki
1,CN(C)c1nc(Cl)nc2c1ncn2[C@H]1[C@H](O)[C@H](O)[C@]2(C(=O)O)C[C@H]12,> 10 µM

# Target: 5-hydroxytryptamine receptor 1B (Homo sapiens) (UniProt P28222)
# Assay: Displacement of [3H]5-CT from human 5-HT1BR expressed in HEK cell membranes at 10 uM incubated for 90 mins under dark condition by microbeta scintillation counting method relative to control
# Conditions: HEK293
# 5-hydroxytryptamine receptor 1B (Homo sapiens), sequence (P28222 whole entry): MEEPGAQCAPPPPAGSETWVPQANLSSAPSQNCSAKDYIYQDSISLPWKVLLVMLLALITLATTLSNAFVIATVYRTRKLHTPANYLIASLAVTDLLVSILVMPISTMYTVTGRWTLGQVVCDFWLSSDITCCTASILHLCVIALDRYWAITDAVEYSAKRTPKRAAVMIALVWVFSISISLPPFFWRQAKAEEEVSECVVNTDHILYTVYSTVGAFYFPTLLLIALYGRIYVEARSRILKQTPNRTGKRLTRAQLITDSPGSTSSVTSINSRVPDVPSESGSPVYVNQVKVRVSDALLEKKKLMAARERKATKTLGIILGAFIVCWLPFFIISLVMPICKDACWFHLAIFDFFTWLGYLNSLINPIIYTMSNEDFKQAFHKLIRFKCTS
row,Structure (SMILES),inhibition
1,CN(C)c1nc(Cl)nc2c1ncn2[C@H]1[C@H](O)[C@H](O)[C@]2(C(=O)O)C[C@H]12,< 50%

# Target: 5-hydroxytryptamine receptor 1E (Homo sapiens) (UniProt P28566)
# Assay: Displacement of [3H]5-HT from human 5-HT1E receptor expressed in HEK cell membranes at 10 uM incubated for 90 mins under dark condition by microbeta scintillation counting method relative to control
# Conditions: HEK293
# 5-hydroxytryptamine receptor 1E (Homo sapiens), sequence (P28566 whole entry): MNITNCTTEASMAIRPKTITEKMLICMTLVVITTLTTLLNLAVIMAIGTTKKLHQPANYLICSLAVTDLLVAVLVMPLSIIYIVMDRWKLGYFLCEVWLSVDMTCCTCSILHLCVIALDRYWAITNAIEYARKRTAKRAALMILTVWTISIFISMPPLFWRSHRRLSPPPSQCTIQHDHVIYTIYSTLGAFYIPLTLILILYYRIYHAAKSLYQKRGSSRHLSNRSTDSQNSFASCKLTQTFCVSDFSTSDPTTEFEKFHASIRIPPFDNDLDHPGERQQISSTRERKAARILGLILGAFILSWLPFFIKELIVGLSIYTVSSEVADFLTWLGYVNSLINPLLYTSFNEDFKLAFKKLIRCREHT
row,Structure (SMILES),inhibition
1,CN(C)c1nc(Cl)nc2c1ncn2[C@H]1[C@H](O)[C@H](O)[C@]2(C(=O)O)C[C@H]12,< 50%

# Target: 5-hydroxytryptamine receptor 7 (Homo sapiens) (UniProt P34969)
# Assay: Displacement of [3H]LSD from human 5-HT7A receptor expressed in HEK cell membranes at 10 uM incubated for 90 mins under dark condition by microbeta scintillation counting method relative to control
# Conditions: HEK293
# 5-hydroxytryptamine receptor 7 (Homo sapiens), sequence (P34969 whole entry): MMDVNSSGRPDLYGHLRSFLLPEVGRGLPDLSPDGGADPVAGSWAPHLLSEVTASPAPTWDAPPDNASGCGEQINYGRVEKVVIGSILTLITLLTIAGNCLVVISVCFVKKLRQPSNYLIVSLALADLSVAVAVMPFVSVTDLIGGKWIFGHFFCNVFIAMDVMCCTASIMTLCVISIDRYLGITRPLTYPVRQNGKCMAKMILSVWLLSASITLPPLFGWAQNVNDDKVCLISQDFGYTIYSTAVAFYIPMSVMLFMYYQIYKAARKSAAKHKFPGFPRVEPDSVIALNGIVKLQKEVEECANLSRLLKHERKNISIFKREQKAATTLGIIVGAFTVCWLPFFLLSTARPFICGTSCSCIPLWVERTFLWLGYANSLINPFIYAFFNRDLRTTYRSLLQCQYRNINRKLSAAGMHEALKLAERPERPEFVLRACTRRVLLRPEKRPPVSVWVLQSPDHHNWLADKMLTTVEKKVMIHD
row,Structure (SMILES),inhibition
1,CN(C)c1nc(Cl)nc2c1ncn2[C@H]1[C@H](O)[C@H](O)[C@]2(C(=O)O)C[C@H]12,< 50%

# Target: T3, 5-hydroxytryptamine receptor 2C (Homo sapiens) (UniProt P28335)
# T3 sequence (whole entry): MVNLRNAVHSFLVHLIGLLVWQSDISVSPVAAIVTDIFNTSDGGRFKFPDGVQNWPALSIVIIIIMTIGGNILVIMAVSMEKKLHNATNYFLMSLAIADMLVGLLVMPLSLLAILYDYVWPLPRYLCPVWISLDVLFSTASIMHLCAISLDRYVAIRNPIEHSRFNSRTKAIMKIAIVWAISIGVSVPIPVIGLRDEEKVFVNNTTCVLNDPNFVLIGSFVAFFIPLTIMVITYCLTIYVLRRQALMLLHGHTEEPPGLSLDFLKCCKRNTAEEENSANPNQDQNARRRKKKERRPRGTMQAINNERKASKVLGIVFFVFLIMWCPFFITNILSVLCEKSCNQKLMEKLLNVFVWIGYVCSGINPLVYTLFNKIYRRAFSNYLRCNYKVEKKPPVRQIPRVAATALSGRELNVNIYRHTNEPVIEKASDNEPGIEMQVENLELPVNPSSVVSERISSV
# Assay: Displacement of [3H]mesulergine from human 5-HT2CR expressed in Flp-In HEK cell membranes at 10 uM incubated for 90 mins under dark condition by microbeta scintillation counting method relative to control
# Conditions: HEK293
row,Structure (SMILES),inhibition
1,CN(C)c1nc(Cl)nc2c1ncn2[C@H]1[C@H](O)[C@H](O)[C@]2(C(=O)O)C[C@H]12,> 50%

# Target: T4, 5-hydroxytryptamine receptor 3A (Homo sapiens) (UniProt P46098)
# T4 sequence (whole entry): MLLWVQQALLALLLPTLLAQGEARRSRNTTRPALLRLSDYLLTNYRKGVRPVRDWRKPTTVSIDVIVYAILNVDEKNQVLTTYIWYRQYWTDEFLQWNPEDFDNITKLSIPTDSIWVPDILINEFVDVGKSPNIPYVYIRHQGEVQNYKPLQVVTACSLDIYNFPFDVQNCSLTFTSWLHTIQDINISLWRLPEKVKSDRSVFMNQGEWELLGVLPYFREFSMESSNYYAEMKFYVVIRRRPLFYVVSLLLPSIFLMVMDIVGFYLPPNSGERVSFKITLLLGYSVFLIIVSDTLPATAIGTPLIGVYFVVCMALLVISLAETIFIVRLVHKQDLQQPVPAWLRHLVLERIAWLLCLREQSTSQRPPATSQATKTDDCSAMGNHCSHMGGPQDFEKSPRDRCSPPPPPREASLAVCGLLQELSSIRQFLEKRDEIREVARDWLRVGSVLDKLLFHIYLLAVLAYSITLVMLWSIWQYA
# Assay: Displacement of [3H]GR65630 from human 5-HT3 receptor expressed in HEK-T cell membranes at 10 uM incubated for 90 mins under dark condition by microbeta scintillation counting method relative to control
# Conditions: not given
row,Structure (SMILES),inhibition
1,CN(C)c1nc(Cl)nc2c1ncn2[C@H]1[C@H](O)[C@H](O)[C@]2(C(=O)O)C[C@H]12,< 50%

# Target: T5, Adenosine receptor A3 (Homo sapiens, UniProt P0DMS8)
# T5 sequence (P0DMS8 whole entry): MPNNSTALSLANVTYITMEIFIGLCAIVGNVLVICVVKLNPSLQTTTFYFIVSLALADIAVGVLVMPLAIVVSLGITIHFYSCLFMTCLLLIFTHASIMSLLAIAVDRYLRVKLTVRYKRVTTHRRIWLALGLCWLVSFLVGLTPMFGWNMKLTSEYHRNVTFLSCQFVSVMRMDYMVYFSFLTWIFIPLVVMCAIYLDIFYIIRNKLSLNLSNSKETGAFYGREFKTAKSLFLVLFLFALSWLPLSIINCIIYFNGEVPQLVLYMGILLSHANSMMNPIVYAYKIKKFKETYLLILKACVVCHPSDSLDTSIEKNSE
# Assay: Displacement of [125l]N 6-(4-amino-3-iodobenzyl)adenosine-5'-N-methyluronamide from recombinant human A3AR expressed in CHO cell membranes after 60 mins by gamma counting method
# Conditions: not given
row,Structure (SMILES),Ki
1,CN(C)c1nc(Cl)nc2c1ncn2[C@H]1[C@H](O)[C@H](O)[C@]2(C(=O)O)C[C@H]12,1.08 µM

# Target: T6, 5-hydroxytryptamine receptor 1A (Homo sapiens) (UniProt P08908)
# T6 sequence (whole entry): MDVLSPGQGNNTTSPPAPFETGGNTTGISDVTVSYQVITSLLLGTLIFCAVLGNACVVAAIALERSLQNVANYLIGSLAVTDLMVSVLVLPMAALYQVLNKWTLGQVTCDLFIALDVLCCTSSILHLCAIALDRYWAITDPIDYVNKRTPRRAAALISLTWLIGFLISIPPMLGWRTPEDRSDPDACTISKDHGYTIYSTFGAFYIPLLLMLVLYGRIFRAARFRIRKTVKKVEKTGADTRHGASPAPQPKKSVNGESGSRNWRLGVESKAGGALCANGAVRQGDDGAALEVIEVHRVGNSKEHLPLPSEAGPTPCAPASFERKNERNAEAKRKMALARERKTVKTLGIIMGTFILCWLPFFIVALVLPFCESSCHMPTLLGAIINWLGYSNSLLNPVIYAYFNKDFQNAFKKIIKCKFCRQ
# Assay: Displacement of [3H]WAY100635 from human 5-HT1AR expressed in CHO cell membranes at 10 uM incubated for 90 mins under dark condition by microbeta scintillation counting method relative to control
# Conditions: not given
row,Structure (SMILES),inhibition
1,CN(C)c1nc(Cl)nc2c1ncn2[C@H]1[C@H](O)[C@H](O)[C@]2(C(=O)O)C[C@H]12,< 50%

# Target: Adenosine receptor A2a (Homo sapiens, UniProt P29274)
# Assay: Displacement of [3 H]2-[p-(2-carboxyethyl)phenyl-ethylamino]-5'-N-ethylcarboxamidoadenosine from recombinant human adenosine receptor A2A expressed in HEK293 cell membranes at 10 uM after 60 mins by liquid scintillation counting method relative to control
# Conditions: not given
# Adenosine receptor A2a, sequence (P29274 whole entry): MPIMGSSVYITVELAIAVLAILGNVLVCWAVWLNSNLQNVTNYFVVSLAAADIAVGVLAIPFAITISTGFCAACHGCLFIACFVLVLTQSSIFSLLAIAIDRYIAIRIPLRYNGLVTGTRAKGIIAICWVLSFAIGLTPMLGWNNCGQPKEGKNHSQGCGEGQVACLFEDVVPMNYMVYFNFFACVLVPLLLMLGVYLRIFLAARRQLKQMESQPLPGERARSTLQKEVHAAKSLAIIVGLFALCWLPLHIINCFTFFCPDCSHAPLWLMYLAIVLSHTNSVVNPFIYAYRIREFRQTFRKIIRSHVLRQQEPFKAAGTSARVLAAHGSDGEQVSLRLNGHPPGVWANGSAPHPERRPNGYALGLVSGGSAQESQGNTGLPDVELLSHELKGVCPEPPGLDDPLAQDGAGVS
row,Structure (SMILES),inhibition
1,CN(C)c1nc(Cl)nc2c1ncn2[C@H]1[C@H](O)[C@H](O)[C@]2(C(=O)O)C[C@H]12,< 10%

# Target: 5-hydroxytryptamine receptor 4 (Homo sapiens) (UniProt Q13639)
# Assay: Displacement of [3H]GR113808 from human 5-HT4 receptor at 10 uM incubated for 90 mins under dark condition by microbeta scintillation counting method relative to control
# Conditions: not given
# 5-hydroxytryptamine receptor 4 (Homo sapiens), sequence (Q13639 whole entry): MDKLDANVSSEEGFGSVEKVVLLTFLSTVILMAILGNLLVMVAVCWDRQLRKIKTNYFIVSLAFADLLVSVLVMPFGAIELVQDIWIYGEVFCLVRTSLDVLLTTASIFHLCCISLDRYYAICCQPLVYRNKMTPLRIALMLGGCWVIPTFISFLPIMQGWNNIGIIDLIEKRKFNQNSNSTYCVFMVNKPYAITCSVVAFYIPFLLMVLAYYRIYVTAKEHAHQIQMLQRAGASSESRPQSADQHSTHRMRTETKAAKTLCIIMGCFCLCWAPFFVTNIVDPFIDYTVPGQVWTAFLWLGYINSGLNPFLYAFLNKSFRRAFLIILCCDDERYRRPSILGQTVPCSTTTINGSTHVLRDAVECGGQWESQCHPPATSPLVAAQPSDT
row,Structure (SMILES),inhibition
1,CN(C)c1nc(Cl)nc2c1ncn2[C@H]1[C@H](O)[C@H](O)[C@]2(C(=O)O)C[C@H]12,< 50%

# Target: T7, 5-hydroxytryptamine receptor 2C (Homo sapiens, UniProt P28335)
# T7 sequence (P28335 whole entry): T3 sequence (whole entry)
# Assay: Displacement of [3H]mesulergine from human 5-HT2CR expressed in Flp-In HEK cell membranes incubated for 90 mins under dark condition by microbeta scintillation counting method
# Design: species or system HEK293
# Conditions: not given
row,Structure (SMILES),Ki
1,CN(C)c1nc(Cl)nc2c1ncn2[C@H]1[C@H](O)[C@H](O)[C@]2(C(=O)O)C[C@H]12,8 µM
